Experimental data taken from patent US11207320B2, “Compositions and methods for cancer expressing PDE3A or SLFN12” (The Broad Institute, Inc., priority 2015, dated 2021).

Tested on: 766 cancer cell lines
Test: Large-scale cell-line viability measurements (766 cancer cell lines, 72 h, AUC)
Assay type: cell-based, human
Settings: 72 hours
Experimental: Cell lines were treated for 72 hours with concentrations ranging from 66.4 μM-2 nM in 2-fold step dilutions.
To characterize cellular sensitivity to DNMDP further, 766 genomically characterized cancer cell lines were screened for DMNDP sensitivity at concentrations ranging from 66.4 μM to 2 nM in 2-fold dilution steps for 72 hours. From these cell lines, 22 cell lines were categorized as sensitive with a robust Z-score lower than −4, which represented multiple lineages including multiple melanoma cell lines, amongst others (Table 1).
The sensitivity of […] cancer cell lines (CCLs) was measured drawn from 23 different lineages to DNMDP. Each cell line was plated in its preferred media in white opaque 1536-plates at a density of 500 cells/well. After incubating overnight, DNMDP was added by acoustic transfer at 16 concentrations ranging from 66.4 μM-2 nM in 2-fold steps in duplicate (Labcyte Echo 555, Labcyte Inc., Sunnyvale, Calif.). After 72 hours treatment, cellular ATP levels were measured as a surrogate for viability (CELLTITERGLO®, Promega Corporation, Madison, Wis.) according to manufacturer's protocols using a ViewLux Microplate Imager (PerkinElmer, Waltham, Mass.) and normalized to background (media-only) and vehicle (DMSO)-treated control wells.
Concentration response curves were fit using nonlinear fits to 2- or 3-parameter sigmoid functions through all 16 concentrations with the low-concentration asymptote set to the DMSO-normalized value, and an optimal 8-point dose curve spanning the range of compound-sensitivity was identified. The area under the 8-point dose curve (AUC) was computed by numeric integration as a metric for sensitivity for further analysis. Similar sensitivity measurements have been obtained for a collection of 480 other compounds, enabling analyses that identify cell lines responding uniquely to DNMDP (see Broad Institute Cancer Therapeutics Response Portal, a dataset to identify comprehensively relationships between genetic and lineage features of human cancer cell lines and small-molecule sensitivities for complete list of compounds).

[1] = MOLM6 (HAEMATOPOIETIC AND LYMPHOID TISSUE)
[2] = MOLT13 (HAEMATOPOIETIC AND LYMPHOID TISSUE)
[3] = MV411 (HAEMATOPOIETIC AND LYMPHOID TISSUE)
[4] = NALM6 (HAEMATOPOIETIC AND LYMPHOID TISSUE)
[5] = NB4 (HAEMATOPOIETIC AND LYMPHOID TISSUE)
[6] = NCO2 (HAEMATOPOIETIC AND LYMPHOID TISSUE)
[7] = OCIAML2 (HAEMATOPOIETIC AND LYMPHOID TISSUE)
[8] = OCILY19 (HAEMATOPOIETIC AND LYMPHOID TISSUE)
[9] = PECAPJ15 (UPPER AERODIGESTIVE TRACT)
[10] = PF382 (HAEMATOPOIETIC AND LYMPHOID TISSUE)
[11] = RPMI8402 (HAEMATOPOIETIC AND LYMPHOID TISSUE)
[12] = SCC4 (UPPER AERODIGESTIVE TRACT)
[13] = SNU1214 (UPPER AERODIGESTIVE TRACT)
[14] = U118MG (CENTRAL NERVOUS SYSTEM)
[15] = U266B1 (HAEMATOPOIETIC AND LYMPHOID TISSUE)
[16] = U937 (HAEMATOPOIETIC AND LYMPHOID TISSUE)

CCN(CC)c1ccc(C2=NNC(=O)CC2C)cc1[N+](=O)[O-] (centres unmarked) [DNMDP, 6-(4-(diethylamino)-3-nitrophenyl)-5-methyl-4,5-dihydropyridazin-3(2H)-one]
Robust Z-score (LU99 (LUNG)): −0.8744
DNMDP AUC (LXF289 (LUNG)): 5.734
Robust Z-score (LXF289 (LUNG)): −0.9454
DNMDP AUC (MALME3M (SKIN)): 6.112
Robust Z-score (MALME3M (SKIN)): −0.5486
DNMDP AUC (MCF7 (BREAST)): 6.1256
Robust Z-score (MCF7 (BREAST)): −0.5343
DNMDP AUC (MEWO (SKIN)): 5.738
Robust Z-score (MEWO (SKIN)): −0.9412
DNMDP AUC (MKN7 (STOMACH)): 6.1453
Robust Z-score (MKN7 (STOMACH)): −0.5136
DNMDP AUC [1]: 6.0447
Robust Z-score [1]: −0.6192
DNMDP AUC [2]: 6.084
Robust Z-score [2]: −0.578
DNMDP AUC [3]: 5.6905
Robust Z-score [3]: −0.991
DNMDP AUC [4]: 5.7872
Robust Z-score [4]: −0.8895
DNMDP AUC [5]: 6.219
Robust Z-score [5]: −0.4363
DNMDP AUC (NCIH23 (LUNG)): 6.1854
Robust Z-score (NCIH23 (LUNG)): −0.4716
DNMDP AUC (NCIH1184 (LUNG)): 6.1776
Robust Z-score (NCIH1184 (LUNG)): −0.4797
DNMDP AUC (NCIH1355 (LUNG)): 6.171
Robust Z-score (NCIH1355 (LUNG)): −0.4867
DNMDP AUC (NCIH1435 (LUNG)): 5.9756
Robust Z-score (NCIH1435 (LUNG)): −0.6918
DNMDP AUC (NCIH1563 (LUNG)): 1.0887
Robust Z-score (NCIH1563 (LUNG)): −5.821
DNMDP AUC (NCIH1793 (LUNG)): 6.2189
Robust Z-score (NCIH1793 (LUNG)): −0.4364
DNMDP AUC (NCIH2009 (LUNG)): 5.7594
Robust Z-score (NCIH2009 (LUNG)): −0.9187
DNMDP AUC (NCIH2122 (LUNG)): 1.3105
Robust Z-score (NCIH2122 (LUNG)): −5.588
DNMDP AUC (NCIH2141 (LUNG)): 5.7218
Robust Z-score (NCIH2141 (LUNG)): −0.9582
DNMDP AUC [6]: 5.7088
Robust Z-score [6]: −0.9718
DNMDP AUC [7]: 5.8945
Robust Z-score [7]: −0.7769
DNMDP AUC [8]: 6.1512
Robust Z-score [8]: −0.5075
DNMDP AUC (ONCODG1 (OVARY)): 5.8296
Robust Z-score (ONCODG1 (OVARY)): −0.845
DNMDP AUC (PC14 (LUNG)): 6.2003
Robust Z-score (PC14 (LUNG)): −0.4559
DNMDP AUC [9]: 5.789
Robust Z-score [9]: −0.8876
DNMDP AUC [10]: 5.8519
Robust Z-score [10]: −0.8216
DNMDP AUC (RERFLCAD1 (LUNG)): 6.1862
Robust Z-score (RERFLCAD1 (LUNG)): −0.4707
DNMDP AUC (RKN (SOFT TISSUE)): 6.1579
Robust Z-score (RKN (SOFT TISSUE)): −0.5004
DNMDP AUC [11]: 5.9827
Robust Z-score [11]: −0.6843
DNMDP AUC (RVH421 (SKIN)): 1.4556
Robust Z-score (RVH421 (SKIN)): −5.436
DNMDP AUC [12]: 6.0502
Robust Z-score [12]: −0.6135
DNMDP AUC (SKCO1 (LARGE INTESTINE)): 5.688
Robust Z-score (SKCO1 (LARGE INTESTINE)): −0.9936
DNMDP AUC (SKLU1 (LUNG)): 6.0109
Robust Z-score (SKLU1 (LUNG)): −0.6547
DNMDP AUC (SKMEL3 (SKIN)): 1.2215
Robust Z-score (SKMEL3 (SKIN)): −5.682
DNMDP AUC (SKMEL5 (SKIN)): 5.9639
Robust Z-score (SKMEL5 (SKIN)): −0.7041
DNMDP AUC (SKNBE2 (AUTONOMIC GANGLIA)): 5.7717
Robust Z-score (SKNBE2 (AUTONOMIC GANGLIA)): −0.9058
DNMDP AUC (SKNSH (AUTONOMIC GANGLIA)): 5.8424
Robust Z-score (SKNSH (AUTONOMIC GANGLIA)): −0.8316
DNMDP AUC (SNU119 (OVARY)): 6.1473
Robust Z-score (SNU119 (OVARY)): −0.5115
DNMDP AUC (SNU620 (STOMACH)): 6.1039
Robust Z-score (SNU620 (STOMACH)): −0.5571
DNMDP AUC (SNU869 (BILIARY TRACT)): 5.7543
Robust Z-score (SNU869 (BILIARY TRACT)): −0.9241
DNMDP AUC [13]: 6.2071
Robust Z-score [13]: −0.4488
DNMDP AUC (SNU1272 (KIDNEY)): 6.0226
Robust Z-score (SNU1272 (KIDNEY)): −0.6424
DNMDP AUC (SUIT2 (PANCREAS)): 5.8956
Robust Z-score (SUIT2 (PANCREAS)): −0.7757
DNMDP AUC (T3M10 (LUNG)): 6.1867
Robust Z-score (T3M10 (LUNG)): −0.4702
DNMDP AUC (TE8 (OESOPHAGUS)): 6.2119
Robust Z-score (TE8 (OESOPHAGUS)): −0.4437
DNMDP AUC (TE125T (SOFT TISSUE)): 5.744
Robust Z-score (TE125T (SOFT TISSUE)): −0.9349
DNMDP AUC (TUHR14TKB (KIDNEY)): 5.8451
Robust Z-score (TUHR14TKB (KIDNEY)): −0.8287
DNMDP AUC [14]: 6.1481
Robust Z-score [14]: −0.5107
DNMDP AUC [15]: 6.1906
Robust Z-score [15]: −0.4661
DNMDP AUC [16]: 6.1777
Robust Z-score [16]: −0.4796
